Bridge positions count the residues as written; N and C are the ends. Square brackets hold non-standard residues; d marks the D form. Peptide text beside a SMILES is read from it. Bip = N[C@@H](Cc1ccc(-c2ccccc2)cc1)C(=O)O; Bta = N[C@@H](Cc1csc2ccccc12)C(=O)O; 3Pal = N[C@@H](Cc1cccnc1)C(=O)O; NMeA = CN[C@@H](C)C(=O)O; Dab = NCC[C@H](N)C(=O)O
Target: T1, PE-labeled human PD-L1-Ig binding to Jurkat cell line over-expressing human PD-1 (Jurkat-PD-1) (Homo sapiens, UniProt Q15116)
T1 construct: expressed in transfected cells; host or cells: Jurkat
Test: Jurkat-PD-1 Cell Binding High-Content Screening Assay (CBA): Method 1
Conditions: Jurkat-hPD-1 cells, PE-labeled PD-L1-Ig 20 nM final; read-out: Jurkat HPDL1 PD1 IC50 (uM) (Method 1)

T1 sequence (Q15116 25-288): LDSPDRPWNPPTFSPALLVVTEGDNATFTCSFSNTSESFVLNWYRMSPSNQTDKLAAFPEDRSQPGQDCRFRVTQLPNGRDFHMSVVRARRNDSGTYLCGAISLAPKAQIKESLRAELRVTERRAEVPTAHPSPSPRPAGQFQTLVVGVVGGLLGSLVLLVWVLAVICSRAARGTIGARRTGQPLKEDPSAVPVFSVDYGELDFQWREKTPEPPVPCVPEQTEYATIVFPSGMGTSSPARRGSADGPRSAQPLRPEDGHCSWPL

SMILES | IC50 [µM]
CC(C)C[C@@H]1NC(=O)CSC[C@@H](C(=O)N[C@@H](C)C(N)=O)NC(=O)[C@H](CO)NC(=O)[C@H](C(C)C)NC(=O)[C@H](CC(C)C)NC(=O)[C@H](CCCNC(=N)N)NC(=O)[C@@H](CC(C)C)NC(=O)[C@H](C)N(C)C(=O)[C@H](CCCNC(=N)N)NC(=O)[C@H](Cc2ccc(-c3ccccc3)cc2)NC(=O)[C@H](C(C)C)NC(=O)[C@H](Cc2c[nH]c3ccccc23)NC(=O)[C@H](CC(=O)O)NC(=O)[C@H](Cc2ccc(O)cc2)NC1=O [Compound 1037] ({CH2CO}-LYDWV[Bip]R[NMeA][dL]RLVSCA-NH2; thioether N-14) | 0.14
CC(C)C[C@@H]1NC(=O)CSC[C@@H](C(=O)N[C@@H](C)C(N)=O)NC(=O)[C@H]([C@@H](C)O)NC(=O)[C@H](C(C)C)NC(=O)[C@H](CC(C)C)NC(=O)[C@H](CCN)NC(=O)[C@@H](CC(C)C)NC(=O)[C@H](C)N(C)C(=O)[C@H](CCCNC(=N)N)NC(=O)[C@H](Cc2ccc(-c3ccccc3)cc2)NC(=O)[C@H](C(C)C)NC(=O)[C@H](Cc2c[nH]c3ccccc23)NC(=O)[C@H](CC(=O)O)NC(=O)[C@H](Cc2ccc(O)cc2)NC1=O [Compound 1039] ({CH2CO}-LYDWV[Bip]R[NMeA][dL][Dab]LVTCA-NH2; thioether N-14) | 0.08
CC(C)C[C@@H]1NC(=O)CSC[C@@H](C(=O)N[C@@H](C)C(N)=O)NC(=O)[C@H](CO)NC(=O)[C@H](C(C)C)NC(=O)[C@H](CC(C)C)NC(=O)[C@H](CCCNC(=N)N)NC(=O)[C@H](Cc2csc3ccccc23)NC(=O)[C@H](C)N(C)C(=O)[C@H](CCCNC(=N)N)NC(=O)[C@H](Cc2ccc(-c3ccccc3)cc2)NC(=O)[C@H](C(C)C)NC(=O)[C@H](Cc2c[nH]c3ccccc23)NC(=O)[C@H](CC(=O)O)NC(=O)[C@H](Cc2ccc(O)cc2)NC1=O [Compound 1041] ({CH2CO}-LYDWV[Bip]R[NMeA][Bta]RLVSCA-NH2; thioether N-14) | 0.31
CC(C)C[C@@H]1NC(=O)[C@H](CCCNC(=N)N)NC(=O)[C@@H](Cc2ccccc2)NC(=O)[C@H](C)N(C)C(=O)[C@H](CCCNC(=N)N)NC(=O)[C@H](Cc2ccc(-c3ccccc3)cc2)NC(=O)[C@H](C(C)C)NC(=O)[C@H](Cc2c[nH]c3ccccc23)NC(=O)[C@H](CC(=O)O)NC(=O)[C@H](Cc2ccc(O)cc2)NC(=O)[C@H](CC(N)=O)NC(=O)CSC[C@@H](C(=O)N[C@@H](C)C(N)=O)NC(=O)[C@H](CO)NC(=O)[C@H](C(C)C)NC1=O [Compound 1042] ({CH2CO}-NYDWV[Bip]R[NMeA][dF]RLVSCA-NH2; thioether N-14) | 0.04
CC(C)C[C@@H]1NC(=O)[C@H](CCCNC(=N)N)NC(=O)[C@@H](Cc2ccccc2)NC(=O)[C@H](C)N(C)C(=O)[C@H](CCCNC(=N)N)NC(=O)[C@H](Cc2ccc(-c3ccccc3)cc2)NC(=O)[C@H](C(C)C)NC(=O)[C@H](Cc2c[nH]c3ccccc23)NC(=O)[C@H](CC(=O)O)NC(=O)[C@H](Cc2ccc(O)cc2)NC(=O)[C@H](CCC(N)=O)NC(=O)CSC[C@@H](C(=O)N[C@@H](C)C(N)=O)NC(=O)[C@H](CO)NC(=O)[C@H](C(C)C)NC1=O [Compound 1043] ({CH2CO}-QYDWV[Bip]R[NMeA][dF]RLVSCA-NH2; thioether N-14) | 0.17
CC(C)C[C@@H]1NC(=O)[C@H](CCCNC(=N)N)NC(=O)[C@@H](Cc2ccccc2)NC(=O)[C@H](C)N(C)C(=O)[C@H](CCCNC(=N)N)NC(=O)[C@H](Cc2ccc(-c3ccccc3)cc2)NC(=O)[C@H](C(C)C)NC(=O)[C@H](Cc2c[nH]c3ccccc23)NC(=O)[C@H](CC(=O)O)NC(=O)[C@H](Cc2ccc(O)cc2)NC(=O)[C@H](Cc2cnc[nH]2)NC(=O)CSC[C@@H](C(=O)N[C@@H](C)C(N)=O)NC(=O)[C@H](CO)NC(=O)[C@H](C(C)C)NC1=O [Compound 1044] ({CH2CO}-HYDWV[Bip]R[NMeA][dF]RLVSCA-NH2; thioether N-14) | 0.04
CC(C)C[C@@H]1NC(=O)[C@H](CCCNC(=N)N)NC(=O)[C@@H](CC(C)C)NC(=O)[C@H](C)N(C)C(=O)[C@H](CCCNC(=N)N)NC(=O)[C@H](Cc2ccc(-c3ccccc3)cc2)NC(=O)[C@H](C(C)C)NC(=O)[C@H](Cc2c[nH]c3ccccc23)NC(=O)[C@H](CC(=O)O)NC(=O)[C@H](Cc2ccc(O)cc2)NC(=O)[C@H](CC(N)=O)NC(=O)CSC[C@@H](C(=O)N[C@@H](C)C(N)=O)NC(=O)[C@H]([C@@H](C)O)NC(=O)[C@H](C(C)C)NC1=O [Compound 1045] ({CH2CO}-NYDWV[Bip]R[NMeA][dL]RLVTCA-NH2; thioether N-14) | 0.2
CC(C)C[C@@H]1NC(=O)[C@H](CCCNC(=N)N)NC(=O)[C@@H](CC(C)C)NC(=O)[C@H](C)N(C)C(=O)[C@H](CCCNC(=N)N)NC(=O)[C@H](Cc2ccc(-c3ccccc3)cc2)NC(=O)[C@H](C(C)C)NC(=O)[C@H](Cc2c[nH]c3ccccc23)NC(=O)[C@H](CC(=O)O)NC(=O)[C@H](Cc2ccc(O)cc2)NC(=O)[C@H](CCC(N)=O)NC(=O)CSC[C@@H](C(=O)N[C@@H](C)C(N)=O)NC(=O)[C@H]([C@@H](C)O)NC(=O)[C@H](C(C)C)NC1=O [Compound 1046] ({CH2CO}-QYDWV[Bip]R[NMeA][dL]RLVTCA-NH2; thioether N-14) | 0.1
CC(C)C[C@@H]1NC(=O)[C@H](CCCNC(=N)N)NC(=O)[C@@H](CC(C)C)NC(=O)[C@H](C)N(C)C(=O)[C@H](CCCNC(=N)N)NC(=O)[C@H](Cc2ccc(-c3ccccc3)cc2)NC(=O)[C@H](C(C)C)NC(=O)[C@H](Cc2c[nH]c3ccccc23)NC(=O)[C@H](CC(=O)O)NC(=O)[C@H](Cc2ccc(O)cc2)NC(=O)[C@H](Cc2cnc[nH]2)NC(=O)CSC[C@@H](C(=O)N[C@@H](C)C(N)=O)NC(=O)[C@H]([C@@H](C)O)NC(=O)[C@H](C(C)C)NC1=O [Compound 1047] ({CH2CO}-HYDWV[Bip]R[NMeA][dL]RLVTCA-NH2; thioether N-14) | 0.07

Continued by falling IC50, values first:

IC50 [µM] | SMILES
0.17 | CC(C)C[C@@H]1NC(=O)[C@H](CCCNC(=N)N)NC(=O)[C@H](Cc2csc3ccccc23)NC(=O)[C@H](C)N(C)C(=O)[C@H](CCCNC(=N)N)NC(=O)[C@H](Cc2ccc(-c3ccccc3)cc2)NC(=O)[C@H](C(C)C)NC(=O)[C@H](Cc2c[nH]c3ccccc23)NC(=O)[C@H](CC(=O)O)NC(=O)[C@H](Cc2ccc(O)cc2)NC(=O)[C@H](Cc2cnc[nH]2)NC(=O)CSC[C@@H](C(=O)N[C@@H](C)C(N)=O)NC(=O)[C@H](CO)NC(=O)[C@H](C(C)C)NC1=O [Compound 1040] ({CH2CO}-HYDWV[Bip]R[NMeA][Bta]RLVSCA-NH2; thioether N-14)
0.15 | CC(C)C[C@@H]1NC(=O)[C@H](CCN)NC(=O)[C@@H](CC(C)C)NC(=O)[C@H](C)N(C)C(=O)[C@H](CCCNC(=N)N)NC(=O)[C@H](Cc2ccc(-c3ccccc3)cc2)NC(=O)[C@H](C(C)C)NC(=O)[C@H](Cc2c[nH]c3ccccc23)NC(=O)[C@H](CC(=O)O)NC(=O)[C@H](Cc2ccc(O)cc2)NC(=O)[C@H](Cc2cnc[nH]2)NC(=O)CSC[C@@H](C(=O)N[C@@H](C)C(N)=O)NC(=O)[C@H]([C@@H](C)O)NC(=O)[C@H](C(C)C)NC1=O [Compound 1051] ({CH2CO}-HYDWV[Bip]R[NMeA][dL][Dab]LVTCA-NH2; thioether N-14)
0.13 | CC(C)C[C@@H]1NC(=O)[C@H](CCN)NC(=O)[C@@H](CC(C)C)NC(=O)[C@H](C)N(C)C(=O)[C@H](CCCNC(=N)N)NC(=O)[C@H](Cc2ccc(-c3ccccc3)cc2)NC(=O)[C@H](C(C)C)NC(=O)[C@H](Cc2c[nH]c3ccccc23)NC(=O)[C@H](CC(=O)O)NC(=O)[C@H](Cc2ccc(O)cc2)NC(=O)[C@H](CC(N)=O)NC(=O)CSC[C@@H](C(=O)N[C@@H](C)C(N)=O)NC(=O)[C@H]([C@@H](C)O)NC(=O)[C@H](C(C)C)NC1=O [Compound 1038] ({CH2CO}-NYDWV[Bip]R[NMeA][dL][Dab]LVTCA-NH2; thioether N-14)
0.11 | CC(C)C[C@@H]1NC(=O)CSC[C@@H](C(=O)N[C@@H](C)C(N)=O)NC(=O)[C@H]([C@@H](C)O)NC(=O)[C@H](C(C)C)NC(=O)[C@H](CC(C)C)NC(=O)[C@H](CCCNC(=N)N)NC(=O)[C@@H](CC(C)C)NC(=O)[C@H](C)N(C)C(=O)[C@H](CCCNC(=N)N)NC(=O)[C@H](Cc2ccc(-c3ccccc3)cc2)NC(=O)[C@H](C(C)C)NC(=O)[C@H](Cc2c[nH]c3ccccc23)NC(=O)[C@H](CC(=O)O)NC(=O)[C@H](Cc2ccc(O)cc2)NC1=O [Compound 1050] ({CH2CO}-LYDWV[Bip]R[NMeA][dL]RLVTCA-NH2; thioether N-14)
0.06 | CC(C)C[C@@H]1NC(=O)[C@H](CCCNC(=N)N)NC(=O)[C@@H](CC(C)C)NC(=O)[C@H](C)N(C)C(=O)[C@H](CCCNC(=N)N)NC(=O)[C@H](Cc2ccc(-c3ccccc3)cc2)NC(=O)[C@H](C(C)C)NC(=O)[C@H](Cc2c[nH]c3ccccc23)NC(=O)[C@H](CC(=O)O)NC(=O)[C@H](Cc2ccc(O)cc2)NC(=O)[C@H](Cc2ccccc2)NC(=O)CSC[C@@H](C(=O)N[C@@H](C)C(N)=O)NC(=O)[C@H]([C@@H](C)O)NC(=O)[C@H](C(C)C)NC1=O [Compound 1048] ({CH2CO}-FYDWV[Bip]R[NMeA][dL]RLVTCA-NH2; thioether N-14)
0.05 | CC(C)C[C@@H]1NC(=O)[C@H](CCCNC(=N)N)NC(=O)[C@@H](CC(C)C)NC(=O)[C@H](C)N(C)C(=O)[C@H](CCCNC(=N)N)NC(=O)[C@H](Cc2ccc(-c3ccccc3)cc2)NC(=O)[C@H](C(C)C)NC(=O)[C@H](Cc2c[nH]c3ccccc23)NC(=O)[C@H](CC(=O)O)NC(=O)[C@H](Cc2ccc(O)cc2)NC(=O)[C@H](Cc2cccnc2)NC(=O)CSC[C@@H](C(=O)N[C@@H](C)C(N)=O)NC(=O)[C@H](CO)NC(=O)[C@H](C(C)C)NC1=O [Compound 1036] ({CH2CO}-[3Pal]YDWV[Bip]R[NMeA][dL]RLVSCA-NH2; thioether N-14)
0.01 | CC(C)C[C@@H]1NC(=O)[C@H](CCCNC(=N)N)NC(=O)[C@@H](CC(C)C)NC(=O)[C@H](C)N(C)C(=O)[C@H](CCCNC(=N)N)NC(=O)[C@H](Cc2ccc(-c3ccccc3)cc2)NC(=O)[C@H](C(C)C)NC(=O)[C@H](Cc2c[nH]c3ccccc23)NC(=O)[C@H](CC(=O)O)NC(=O)[C@H](Cc2ccc(O)cc2)NC(=O)[C@H](Cc2cccnc2)NC(=O)CSC[C@@H](C(=O)N[C@@H](C)C(N)=O)NC(=O)[C@H]([C@@H](C)O)NC(=O)[C@H](C(C)C)NC1=O [Compound 1049] ({CH2CO}-[3Pal]YDWV[Bip]R[NMeA][dL]RLVTCA-NH2; thioether N-14)
